Source: ChEMBL document CHEMBL1136681, “[3H]-(R)-NPTS, a radioligand for the type 1 glycine transporter” (Bioorg Med Chem Lett, 2003)

Test: Inhibition of [3-H]-glycine uptake into rat synaptosomes
Assay type: subcellular, Brain

SMILES | IC50
CN(CCC(Oc1ccc(-c2ccccc2)cc1)c1ccc(F)cc1)CC(=O)O (configuration not stated) | 36.4 nM
Cc1ccc(C(=O)c2ccc(OC(CCN(C)CC(=O)O)c3ccccc3)cc2)cc1 (configuration not stated) | 153 nM
